One data set has as its system HQF DNA [d(T2AG3)4]. Briefly: SYBR Green melting study with HQF DNA. It counts as binding, human. The following applies: for Tm of HQF DNA with ligand: 5 µM HQF DNA, 1 µM ligand, HQF DNA alone 27°C; for Tm: melting temperature of HQF DNA (5 µM) in presence of 1 µM ligand. The method, then: (§1) When quadruplex DNA melts to form ssDNA structure, SG fluorescence intensity gradually reduces as SG has no binding to ssDNA. Each time, 5 µM of HQF DNA [d(T2AG3)4)], 5 µM of dsDNA (prepared by mixing equal concentration of poly-dA-dT and poly-dT-dA), 5 µM ssDNA ( poly dT alone) and 1 µM of each ligand was incubated at 4°C for 16 h, and used for melting studies. […] Affinity, stoichiometry and thermodynamic parameters for quadruplex-ligand complex were studied with 60 µM of ligand and 10 µM of HQF DNA using Microcal VP-ITC (Northampton, MA, USA). Ligand addition to G-quadruplex DNA was made every 180 seconds. Titration experiments were performed thrice and blank correction was made each time to minimize error.

A further data set has as its system B16F10 melanoma cells. Nature of the data set: Preclinical study: tumor size in tumor-induced mice. Type of data set: in vivo. The following applies: C57BL6/J mice with B16F10 tumor; 200 µM L1, 125 µM L2, 50 µM L3; end of experiment. The method, then:
C57BL6/J mice were used from the animal house facility located at CCMB (Hyderabad, India). All animal experimental studies were carried out in strict accordance with the recommendations in the guide for the care and use of laboratory animals of Centre for Cellular and Molecular Biology (CCMB). All the animal experimental protocols were approved by the Institutional Animal Ethical Committee (IAEC) of Centre for Cellular and Molecular Biology (CCMB with Permit number: CPCSEA 20/1999, Ministry of Environment and Forest, Government of India).The protocol was approved by the Institutional Animal Ethical Committee (IAEC) of CCMB (Protocol number: IAEC 16/2012). All the surgery was performed under sodium pentobarbital anaesthesia, and all efforts were made to minimize suffering. C57BL6/J mice, 6–8 weeks old, were subcutaneously injected with 2×10^5 B16F10 melanoma cells, in the […] region. After the tumor attained a size of 500–1000 mm^3 (≈9 days following cancer cell implantation), mice were grouped and treated as follows.
Group (i) was treated with vehicle control (4 mice), group (ii) with 200 µM of L1 (4 mice), group (iii) with 125 µM of L2 (4 mice) and group (iv) with 50 µM of L3 (4 mice). These experiments were repeated thrice and mean values were considered. Size of tumor was measured every day at a fixed time. The tumor sizes were calculated using the formula (0.5 ab^2), where ‘a’ was the largest dimension and ‘b’ was the smallest dimension of the tumor. The experiment was terminated when the average tumor volume of the control/treated group was 10000–12000 mm^3.

In data set [1] the test system is B16F10 cells. Nature of the data set: Flow cytometry cell cycle analysis (PI). The following applies: for cells in G0/G1 phase / cells in G2/M phase / cells in S phase / cells in Sub G1 phase: 200 µM L1, 125 µM L2, 50 µM L3, 3 h. Type of data set: cell-based, human. The method, then: (§2) Since MTT and cell culture assays yielded encouraging results with B16F10 cells they were used for confocal and flow cytometry experiments. After 90% confluence, the cells were treated with 200 µM, 125 µM and 50 µM of L1, L2, L3 respectively, for 3 h. 1×10^6 cells were washed with 2× binding buffer and resuspended in 100 µl binding buffer and Annexin-V-FITC (1.0 µg). The cells were then incubated at room temperature for 10 min, followed by the addition of 400 µl of binding buffer containing 1 µl of Propidium Iodide (PI). Stained cells were analyzed using FACS Calibur Flow Cytometer from B.D. Biosceinces (USA). Annexin-V-FITC and PI labelled cells were excited using 488 nm solid-state laser and fluorescence emission intensity was captured using 530/30 and 585/42 band pass filters respectively.
In general terms: Flow cytometry measures light scatter and fluorescence of single cells or particles in a stream.

A further data set has as its system HQF DNA d(TTAGGG)4. Briefly: Isothermal titration calorimetry. It counts as binding, human. As to conditions: ITC; for K1 x 10^-7 / K2 x 10^-5: two-sites model, 100 mM KBPES pH 7.0; for K1 x 10^-7: mode-1, 25°C; for K2 x 10^-5: mode-2, 25°C; for Kd: quadruplex DNA, read-out: Kd, higher affinity interaction (mode-1). The procedure:
as §1
On integrating the heats produced per injection, with respect to time and conversion to per mole basis, the binding isotherm (Figure 8A) corresponding to each ligand was obtained. […] After making blank correction, the heat data was fitted with “two-independent sites” model and analyzed using Origin 7.1 to calculate thermodynamic parameters.

In data set [2] the test system is B16F10 cells. Nature of the data set: MTT assay. Type of data set: cell-based, human. As to conditions: Mus musculus, B16-F10, B16F10 cells, 24 h and 48 h, read-out: half maximal inhibitory concentration (IC50). The procedure: Normal human cell lines (CRL-2115, CRL-2120) as well as human cancer cell lines (NCM-460, He La, MCF-7, B16F10 and A549) were cultured according to the supplier's recommendations. To study the cytotoxicity of the ligands, after 80% confluence, cells were trypsinized with 0.1% trypsin-EDTA and harvested by centrifugation at 500× g. Serial dilutions of cells were made from 1×10^6 to 1×10^3 cells per ml. The cells were seeded in triplicate in a 96 well plate. The suspended cells were treated with 50 µM, 100 µM, 150 µM, 200 µM, 250 µM and 300 µM of each ligand, at two different time points (24 h and 48 h). Normal as well as tumor cells to which no ligand was added served as control. After incubation, MTT (100 µl, 5 mg mL^−1) solution was added to each well and the cell viability was determined by measuring the ability of cells to transform MTT to a purple coloured formazan dye. The absorbance of samples at 570 nm was measured using a UV-Visible spectrophotometer. Percentage of viable cells was calculated using the formula given below. [drawing 1] Where the OD570 (sample) corresponds to absorbance obtained from the wells treated with ligands and the OD570 (control) represents the absorbance from the wells in which no ligand was added.
Background: Tetrazolium assays rely on reduction of a dye to a coloured formazan, in cell work by metabolically active cells.

In data set [3] the test system is B16F10 cells. Nature of the data set: Flow cytometry Annexin V / PI dot plot. Type of data set: cell-based, human. The following applies: 200 µM L1, 125 µM L2, 50 µM L3, 3 h. The procedure:
as §2

The nature of data set [4]: Cell count assay (trypan blue). Type of data set: cell-based. Also noted: concentration or dose not given beside the values. The following applies: human; for viability at 24 h: read-out: Number of viable cells after 24 h of ligand treatment; for viability at 48 h: read-out: Number of viable cells after 48 h of ligand treatment. The method, then:
Normal and tumor cell lines were seeded at 20000–40000 cells/cm^2 with 0.2 mL/cm^2 media and incubated for 48 h at 37°C, 6% CO2, 95% relative humidity. […] After 24 h and 48 h of incubation, cells were washed with 300 µl PBS or 0.02% EDTA, trypsinized, followed by harvesting at 37°C. 200 µl cell suspension was transferred into 1.5 ml microcentrifuge tube. To the cell suspension, 300 µl PBS followed by 500 µl of 0.4% trypan blue solution was added. To get the homogenised solution, the microcentrifuge tube was gently tapped for 5 min, 20 µl of cell suspension was loaded in to a chamber of the haemocytometer.

[5] abbreviates: CRL-2115 cells (normal cell line), CRL-2115, 24 h.
The mark [6] stands for this setting: CRL-2115 cells (normal cell line), CRL-2115, 48 h.
[7] abbreviates: CRL-2120 cells (normal cell line), CRL-2120, 24 h.
Setting [8] is: CRL-2120 cells (normal cell line), CRL-2120, 48 h.
The mark [9] stands for this setting: NCM-460 cells (normal cell line), NCM-460, 24 h.
Where [10] appears, read: NCM-460 cells (normal cell line), NCM-460, 48 h.

Values joined by “and” are separate entries in the source; they are usually repeats but may differ in a detail not shown here. Equal entries are not always repeated. Where two headings read alike, the source gives them in different places. Marks after values point to notes of the source that are not given here.

With `Cc1cn([C@H]2C[C@H](N=[N+]=[N-])[C@@H](CO)O2)c(=O)[nH]c1=O` [Ligand L1, 1-(4-azido 5-(hydroxylmethyl)tetrahydrofuran-2-yl)-5-methyl pyrimidi-ne-2,4(1H,3H)-dione, reference compound], in the data set on HQF DNA [d(T2AG3)4], the “Tm of HQF DNA with ligand” value is 28 °C and the Tm is on record as 28 ^o C. The tumor size with B16F10 melanoma cells was 6000–8000 mm^3. Moreover, in the data set on B16F10 cells [1], the “cells in G0/G1 phase” value came to 26.94%; the “cells in G2/M phase” value is 5.58% and 05.58%; the “cells in S phase” value is recorded as 06.38%; the “cells in Sub G1 phase” value turned out to be 61.10%. Further, in the data set with HQF DNA d(TTAGGG)4, the “K1 x 10^-7” value is recorded as 0.72 (± 0.3) and the “K2 x 10^-5” value is 2.14 (± 0.2). The IC50 in the data set with B16F10 cells [2] is roughly 200 µM. Moreover, in the data set with B16F10 cells [3], the “Cells Alive” value stood at 68.78%, the Early apoptotic was determined as 02.61%, the Late apoptotic is listed as 12.05% and the Necrotic was 16.56%. For the same molecule, the Total apoptotic cells in the data set with B16F10 cells [3] is given as 14.66%. Further, the viability at 24 h in data set [4] (setting [5]) is 80 to 90%. In addition, the viability at 48 h in data set [4] (setting [6]) lay within 50 to 60%. Further, the viability at 24 h in data set [4] (setting [7]) lay in the range of 80 to 90%. The viability at 48 h in data set [4] (setting [8]) is 50 to 60%. The viability at 24 h in data set [4] (setting [9]) lay within 80 to 90%. The viability at 48 h in data set [4] (setting [10]) was in the range of 50 to 60%.
Broadly, the Kd is a measure of binding affinity in units of concentration. Regarding `Cc1cn([C@H]2C[C@H](n3cc(-c4ccccc4)nn3)[C@@H](CO)O2)c(=O)[nH]c1=O` [Ligand L2], in the data set with HQF DNA [d(T2AG3)4], the “Tm of HQF DNA with ligand” value came out at 42 °C and the Tm was 42 ^o C. Besides, in the data set with B16F10 melanoma cells, the tumor size is on record as 6000–8000 mm^3. Besides, in the data set with B16F10 cells [1], the “cells in G0/G1 phase” value was determined as 07.78%; the “cells in G2/M phase” value is 1.93% and 01.93%; the “cells in S phase” value was 8.77% and 08.77%; the “cells in Sub G1 phase” value was 81.5% and 81.52%. Further, at HQF DNA d(TTAGGG)4, the dissociation constant (Kd) is roughly 0.1 µM, the “K1 x 10^-7” value is recorded as 1.35 (± 0.1) and the “K2 x 10^-5” value was 2.61 (± 0.3). Moreover, the IC50 in the data set on B16F10 cells [2] was roughly 125 µM. For the same molecule, in the data set with B16F10 cells [3], the “Cells Alive” value is listed as 22.88%, the Early apoptotic was found to be 04.82%, the Late apoptotic is 19.07% and the Necrotic came out at 53.23%. In addition, the Total apoptotic cells with B16F10 cells [3] is on record as 23.89%. In data set [4] (setting [5]), the viability at 24 h was in the range of 80 to 90%. For the same molecule, in data set [4] (setting [6]), the viability at 48 h fell in the range of 50 to 60%. Besides, the viability at 24 h in data set [4] (setting [7]) fell in the range of 80 to 90%. Further, the viability at 48 h in data set [4] (setting [8]) lay in the range of 50 to 60%. Moreover, the viability at 24 h in data set [4] (setting [9]) fell in the range of 80 to 90%. Also, the viability at 48 h in data set [4] (setting [10]) is 50 to 60%.
For the molecule `Cc1cn([C@H]2C[C@H](n3cc(-c4ccc(Cl)cc4)nn3)[C@@H](CO)O2)c(=O)[nH]c1=O` [Ligand L3, 1-(4-(4-(4-chlorophenly)-1H-1,2,3-triazole-1-yl)-5-(hydroxymethyl)tetrahydrofuran-2-yl)-5-methylpyrimidine-2,3(1H,3H)-dione], in the data set on HQF DNA [d(T2AG3)4], the “Tm of HQF DNA with ligand” value is 52 °C and the Tm was 52 ^o C. Further, the tumor size entry in the data set with B16F10 melanoma cells is given as “≈ 4500 mm^3”. Besides, in the data set on B16F10 cells [1], the “cells in G0/G1 phase” value was 4.46% and 04.46%; the “cells in G2/M phase” value was 0.91% and 00.91%; the “cells in S phase” value was 5.36% and 05.36%; the “cells in Sub G1 phase” value worked out at 89.27%. Besides, the “subG1 cell population enhanced compared to other nucleoside ligands” value in the data set on B16F10 cells [1] (L3 versus L1 and L2) is given as 10–30%. In addition, at HQF DNA d(TTAGGG)4, the Kd is roughly 0.1 µM and the “K2 x 10^-5” value was 2.82 (±0.5). Also, the IC50 with B16F10 cells [2] amounted to 50 µM. Moreover, in the data set with B16F10 cells [3], the “Cells Alive” value is on record as 17.79%, the Early apoptotic is given as 20.99%, the Late apoptotic came out at 60.26% and the Necrotic amounted to 00.96%. The Total apoptotic cells in the data set with B16F10 cells [3] is recorded as 81.25%. Further, the viability at 24 h in data set [4] (setting [5]) fell in the range of 80 to 90%. In addition, in data set [4] (setting [6]), the viability at 48 h is 50 to 60%. Also, in data set [4] (setting [7]), the viability at 24 h fell in the range of 80 to 90%. Further, the viability at 48 h in data set [4] (setting [8]) lay in the range of 50 to 60%. Further, the viability at 24 h in data set [4] (setting [9]) is 80 to 90%. Besides, the viability at 48 h in data set [4] (setting [10]) is 50 to 60%.

For the origin of these results see publication PMC3747139 (PLoS ONE, 2013).
